Results taken from publication PMC3702004, “Comparison of Intake and Systemic Relative Effect Potencies of Dioxin-like Compounds in Female Mice after a Single Oral Dose” (Environmental Health Perspectives, 2013).

tested on: hepatic CYP1A1 activity (ethoxyresorufin-O-deethylase, EROD); assay: Hepatic EROD activity in hepatic microsomal fractions after single oral dose; type: in vivo, female C57BL/6 mice; conditions: dose metric Adm dose; 3 days after single oral dose
Procedure: (§1) Animals. Eight-week-old female C57BL/6 mice (Harlan laboratories, Venray, the Netherlands) were randomly assigned to treatment groups (six animals per group) and allowed to acclimate for 1.5 weeks. The animals were housed in groups in standard cages and conditions (23 ± 2°C, 50–60% relative humidity, 12-hr dark/light cycle) with free access to food and water. Mice received a single dose of test compound by oral gavage at a dosing volume of 10 mL/kg body weight (BW). Mice treated with corn oil vehicle (10 mL/kg BW) served as controls. For each congener, five different doses were administered, ranging from 0.5–100 μg/kg BW (TCDD) to 5,000–500,000 µg/kg BW (PCB-153). Detailed information on doses is provided in Supplemental Material, Table S1 (http://dx.doi.org/10.1289/ehp.1206336). On day 3 after dosing, animals were euthanized by CO2/O2 asphyxiation, and blood was immediately collected from the abdominal aorta. The liver, thymus, spleen, and adipose tissue were removed, weighed (liver, thymus, and spleen), snap frozen, and stored at –80°C. All animal treatments were performed with permission of the Animal Ethical Committee (DEC Utrecht) and performed according to the [Law on Animal Experiments (1977)]. Animals were treated humanely and with regard for alleviation of suffering.
EROD activity. We determined hepatic CYP1A1 activity using ethoxyresorufin-O-deethylase (EROD) activity in hepatic microsomal fractions as described by [Schulz et al. (2012)].
(§2) Data analysis. We obtained concentration–response curves using a sigmoidal dose–response nonlinear regression curve fit with variable slope (GraphPad Prism 6.01; GraphPad Software Inc., San Diego, CA, USA):
(§3) In this Hill equation, y is the dependent variable (EROD activity or fold induction of mRNA levels), x the independent variable (administered or systemic dose), E0 is the estimated background response level, Emax is the maximum response, b is the estimated median effective concentration (EC50), and n is the shaping parameter of the Hill curve.
(§4) Using the congener-specific BMR20TCDD concentration, REPs were calculated relatively to TCDD: […]

SMILES | BMR20TCDD Liver EROD activity
Clc1ccc(-c2cc(Cl)c(Cl)cc2Cl)cc1Cl [PCB-118, 2,3´,4,4´,5-pentachlorobiphenyl] | 55,259 µg/kg BW

same assay, conditions: dose metric Syst adipose; 3 days after single oral dose

SMILES | BMR20TCDD Liver EROD activity
Clc1ccc(-c2cc(Cl)c(Cl)cc2Cl)cc1Cl [PCB-118, 2,3´,4,4´,5-pentachlorobiphenyl] | 359,114 ng/g lipid

same assay, conditions: dose metric Syst plasma; 3 days after single oral dose

SMILES | BMR20TCDD Liver EROD activity
Clc1ccc(-c2cc(Cl)c(Cl)cc2Cl)cc1Cl [PCB-118, 2,3´,4,4´,5-pentachlorobiphenyl] | 311,118 ng/g lipid

same assay, conditions: relative to TCDD; dose metric Adm dose (µg/kg BW)

SMILES | REP Liver EROD activity
Clc1ccc(-c2cc(Cl)c(Cl)cc2Cl)cc1Cl [PCB-118, 2,3´,4,4´,5-pentachlorobiphenyl] | 0.000005

same assay, conditions: relative to TCDD; dose metric Syst adipose (ng/g lipid)

SMILES | REP Liver EROD activity
Clc1ccc(-c2cc(Cl)c(Cl)cc2Cl)cc1Cl [PCB-118, 2,3´,4,4´,5-pentachlorobiphenyl] | 0.000003

same assay, conditions: relative to TCDD; dose metric Syst liver (ng/g lipid)

SMILES | REP Liver EROD activity
Clc1ccc(-c2cc(Cl)c(Cl)cc2Cl)cc1Cl [PCB-118, 2,3´,4,4´,5-pentachlorobiphenyl] | 0.00006

same assay, conditions: relative to TCDD; dose metric Syst liver (ng/g liver)

SMILES | REP Liver EROD activity
Clc1ccc(-c2cc(Cl)c(Cl)cc2Cl)cc1Cl [PCB-118, 2,3´,4,4´,5-pentachlorobiphenyl] | 0.00006

same assay, conditions: relative to TCDD; dose metric Syst plasma (ng/g lipid)

SMILES | REP Liver EROD activity
Clc1ccc(-c2cc(Cl)c(Cl)cc2Cl)cc1Cl [PCB-118, 2,3´,4,4´,5-pentachlorobiphenyl] | 0.000004

tested on: Cyp1a2 mRNA in liver; assay: Cyp1a2 gene expression in liver (real-time PCR); type: in vivo, female C57BL/6 mice; conditions: dose metric Adm dose; 3 days after single oral dose
Procedure: as §1
(§5) RNA isolation and quantitative real-time polymerase chain reaction (PCR). Total RNA was isolated from liver and PBLs using a QIAGEN RNeasy kit (QIAGEN). Purity and concentration of the isolated RNA was determined by measuring the absorbance ratio at 260/280 nm and 230/260 nm with a Nanodrop 2000 spectrophotometer (Thermo Scientific, Asheville, NC, USA). RNA was reverse transcribed to complementary DNA (cDNA) using the iScript cDNA synthesis Kit (Bio-Rad, Veenendaal, the Netherlands). Quantitative real-time PCR analyses were performed using the iQ Real-Time PCR Detection System with SYBR green (Bio-Rad). Amplification reactions were set up with […] containing 12.5 μL iQ SYBR Green Supermix (Bio-rad), 0.5 μL distilled H2O, 1 μL (10 μM) forward primer, 1 μL (10 μM) reverse primer, and 10 μL first strand cDNA (10X diluted). Primer sequences were as follows: Cyp1a1: forward-5´-GGTTAACCATGACCGGGAACT-3´ and reverse-5´-TGCCCAAACCAAAGAGAGTGA-3´ ([Schulz et al. 2012]); Cyp1a2: forward-5´-ACATTCCCAAGGAGCGCTGTATCT-3´ and reverse-5´-GTCGATGGCCGAGTTGTTATTGGT-3´ ([Flaveny et al. 2010]); Cyp1b1: forward-5´-GTGGCTGCTCATCCTCTTTACC-3´ and reverse-5´-CCCACAACCTGGTCCAACTC-3´ ([Berge et al. 2004]); β-actin: forward-5´-ATGCTCCCCGGGCTGTAT-3´ and reverse-5´-CATAGGAGTCCTTCTGACCCATTC-3´ ([Schulz et al. 2012]). All primers were run through the National Center for Biotechnology Information Primer-BLAST database (http://www.ncbi.nlm.nih.gov/tools/primer-blast/) to confirm specificity and validate for optimal annealing temperature (60°C for all primers) and efficiency. The efficiency of all primer pairs was 98–102% (tested at 60°C). The following program was used for denaturation and amplification of cDNA: 3 min at 95°C, followed by 40 cycles of 15 sec at 95°C and 45 sec at 60°C. Gene expression for each sample was expressed as threshold cycle (Ct), normalized to the reference gene β-actin (ΔCt). We calculated fold induction relative to the control group.
as §2, §3, §4

SMILES | BMR20TCDD Liver Cyp1a2 mRNA
Clc1ccc(-c2cc(Cl)c(Cl)cc2Cl)cc1Cl [PCB-118, 2,3´,4,4´,5-pentachlorobiphenyl] | 15,522 µg/kg BW

same assay, conditions: dose metric Syst adipose; 3 days after single oral dose

SMILES | BMR20TCDD Liver Cyp1a2 mRNA
Clc1ccc(-c2cc(Cl)c(Cl)cc2Cl)cc1Cl [PCB-118, 2,3´,4,4´,5-pentachlorobiphenyl] | 117,517 ng/g lipid

same assay, conditions: dose metric Syst plasma; 3 days after single oral dose

SMILES | BMR20TCDD Liver Cyp1a2 mRNA
Clc1ccc(-c2cc(Cl)c(Cl)cc2Cl)cc1Cl [PCB-118, 2,3´,4,4´,5-pentachlorobiphenyl] | 103,230 ng/g lipid

same assay, conditions: relative to TCDD; dose metric Adm dose (µg/kg BW)

SMILES | REP Liver Cyp1a2 mRNA
Clc1ccc(-c2cc(Cl)c(Cl)cc2Cl)cc1Cl [PCB-118, 2,3´,4,4´,5-pentachlorobiphenyl] | 0.00003

same assay, conditions: relative to TCDD; dose metric Syst adipose (ng/g lipid)

SMILES | REP Liver Cyp1a2 mRNA
Clc1ccc(-c2cc(Cl)c(Cl)cc2Cl)cc1Cl [PCB-118, 2,3´,4,4´,5-pentachlorobiphenyl] | 0.00001

same assay, conditions: relative to TCDD; dose metric Syst liver (ng/g lipid)

SMILES | REP Liver Cyp1a2 mRNA
Clc1ccc(-c2cc(Cl)c(Cl)cc2Cl)cc1Cl [PCB-118, 2,3´,4,4´,5-pentachlorobiphenyl] | 0.0002

same assay, conditions: relative to TCDD; dose metric Syst liver (ng/g liver)

SMILES | REP Liver Cyp1a2 mRNA
Clc1ccc(-c2cc(Cl)c(Cl)cc2Cl)cc1Cl [PCB-118, 2,3´,4,4´,5-pentachlorobiphenyl] | 0.0003

same assay, conditions: relative to TCDD; dose metric Syst plasma (ng/g lipid)

SMILES | REP Liver Cyp1a2 mRNA
Clc1ccc(-c2cc(Cl)c(Cl)cc2Cl)cc1Cl [PCB-118, 2,3´,4,4´,5-pentachlorobiphenyl] | 0.00002

tested on: Cyp1b1 mRNA in PBLs; assay: Cyp1b1 gene expression in peripheral blood lymphocytes; type: in vivo, female C57BL/6 mice; conditions: single oral dose, day 3
Procedure: as §1
Plasma and PBL isolation. Blood from two mice was pooled (total volume of approximately 1.4 mL); plasma and PBLs were then isolated using Ficoll Paque gradient (GE Healthcare Europe, Diegem, Belgium). Plasma samples were stored at –80°C until compound analysis. Isolated lymphocytes were lysed with RLT buffer (QIAGEN, Venlo, the Netherlands) as described in the QIAGEN RNAeasy kit protocol and stored at –80°C until use.
as §5
Data analysis. We obtained concentration–response curves using a sigmoidal dose–response nonlinear regression curve fit with variable slope (GraphPad Prism 6.01; GraphPad Software Inc., San Diego, CA, USA): […]

SMILES | Effect on Cyp1b1 mRNA in PBLs
Clc1ccc(-c2cc(Cl)c(Cl)cc2Cl)cc1Cl [PCB-118, 2,3´,4,4´,5-pentachlorobiphenyl] | did not induce
